Consider 27 compounds from US10815210B2, “Benzocyclobutane derivatives useful as dual SGLT1 / SGLT2 modulators” (Janssen Pharmaceutica NV, priority 2016, dated 2020).

The structures appear in SMILES notation.

Test [1] has as its target T1, human SGLT2 (Homo sapiens, UniProt P31639).
T1 construct: expressed in transfected cells; host or cells: CHO-K1
T1 sequence (P31639 1-672): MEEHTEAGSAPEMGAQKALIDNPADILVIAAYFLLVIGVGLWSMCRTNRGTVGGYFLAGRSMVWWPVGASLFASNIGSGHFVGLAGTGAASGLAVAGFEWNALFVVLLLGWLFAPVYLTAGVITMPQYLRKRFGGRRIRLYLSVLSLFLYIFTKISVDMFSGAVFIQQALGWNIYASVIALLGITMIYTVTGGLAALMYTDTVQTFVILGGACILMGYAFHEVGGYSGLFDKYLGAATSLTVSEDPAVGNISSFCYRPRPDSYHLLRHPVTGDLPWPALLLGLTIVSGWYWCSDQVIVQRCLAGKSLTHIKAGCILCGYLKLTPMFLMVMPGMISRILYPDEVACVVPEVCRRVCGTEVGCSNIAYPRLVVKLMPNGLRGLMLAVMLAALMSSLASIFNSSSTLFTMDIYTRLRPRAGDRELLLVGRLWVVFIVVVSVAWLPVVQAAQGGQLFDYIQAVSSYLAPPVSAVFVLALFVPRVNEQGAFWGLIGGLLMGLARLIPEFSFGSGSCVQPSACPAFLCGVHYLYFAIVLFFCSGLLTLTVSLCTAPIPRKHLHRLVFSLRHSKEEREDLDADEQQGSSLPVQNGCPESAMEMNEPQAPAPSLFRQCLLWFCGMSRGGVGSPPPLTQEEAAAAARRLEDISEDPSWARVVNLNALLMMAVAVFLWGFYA
The experiment in a line: SGLT2 assay: Na-dependent 14C-AMG uptake in CHO-K1 cells stably expressing human SGLT2. Type of test: cell-based. As to conditions: for IC50: 500 μM AMG, 2 hours at 37° C. Summed up:
(§1)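 CHO-K1 cells stably expressing human SGLT1 or SGLT2, pretreated 24 h with 10 mM Na-butyrate, were exposed 10 min to compound (0.001-10 μM) in Na-containing HEPES/Tris buffer pH 7.4. Uptake of ^14C-AMG (500 μM final) ran 2 h at 37° C, then Na-dependent uptake was counted by scintillation.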

For test [2], the target named is T2, human SGLT1 (Homo sapiens, UniProt P13866).
T2 construct: expressed in transfected cells; host or cells: CHO-K1
T2 sequence (P13866 1-664): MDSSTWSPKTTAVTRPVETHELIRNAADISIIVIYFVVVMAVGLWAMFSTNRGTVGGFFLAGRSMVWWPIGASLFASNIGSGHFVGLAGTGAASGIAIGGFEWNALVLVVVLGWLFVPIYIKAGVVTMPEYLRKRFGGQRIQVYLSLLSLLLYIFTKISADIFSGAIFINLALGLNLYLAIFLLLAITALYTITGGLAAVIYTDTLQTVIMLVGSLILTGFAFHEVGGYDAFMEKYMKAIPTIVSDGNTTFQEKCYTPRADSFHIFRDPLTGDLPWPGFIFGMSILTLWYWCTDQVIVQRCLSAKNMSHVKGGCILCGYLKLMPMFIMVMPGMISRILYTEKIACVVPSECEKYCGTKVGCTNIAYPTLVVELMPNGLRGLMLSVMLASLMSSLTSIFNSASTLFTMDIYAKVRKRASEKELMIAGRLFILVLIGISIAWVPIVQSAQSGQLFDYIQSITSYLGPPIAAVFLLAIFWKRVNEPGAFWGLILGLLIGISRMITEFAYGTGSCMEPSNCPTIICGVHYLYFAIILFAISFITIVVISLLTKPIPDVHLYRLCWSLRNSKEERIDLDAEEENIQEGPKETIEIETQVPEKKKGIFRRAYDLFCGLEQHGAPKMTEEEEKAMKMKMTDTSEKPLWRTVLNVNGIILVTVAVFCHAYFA
As to the kind of experiment: SGLT1 assay: Na-dependent 14C-AMG uptake in CHO-K1 cells stably expressing human SGLT1. Type of test: cell-based. As to conditions: for IC50: 500 μM AMG, 2 hours at 37° C. Summed up: as §1

One may read the IC50 as the point on the concentration scale where inhibition reaches its midpoint. Low readings indicate inhibition by little substance, high ones a need for much substance. For the compound `[2H]C1([2H])Cc2ccc(Cc3cc([C@@H]4O[C@H](CO)[C@@H](O)[C@H](O)[C@H]4O)c(F)cc3CC)cc21` [Compound 73, (2S,3R,4R,5S,6R)-2-(5-((2,2-dideuterium-1,2-dihydrocyclobutabenzen-4-yl)methyl)-4-ethyl-2-fluorophenyl)-6-(hydroxymethyl)-tetrahydro-2H-pyran-3,4,5-triol], the IC50 in test [1] is 3 nM; in test [2], 16 nM.
The like results for `[2H]C1([2H])Cc2ccc(Cc3cc([C@@H]4O[C@H](CO)[C@@H](O)[C@H](O)[C@H]4O)c(F)cc3C3CC3)cc21` [Compound 74, (2S,3R,4R,5S,6R)-2-(4-cyclopropyl-5-((2,2-dideuterium-1,2-dihydrocyclobutabenzen-4-yl)methyl)-2-fluorophenyl)-6-(hydroxymethyl)-tetrahydro-2H-pyran-3,4,5-triol] were, in that order, 10 nM and 12 nM.
The like results for `[2H]C1([2H])Cc2cc(Cc3cc([C@@H]4O[C@H](CO)[C@@H](O)[C@H](O)[C@H]4O)c(OC)cc3Cl)ccc21` [Compound 83, (2S,3R,4R,5S,6R)-2-(5-{[(7,7-dideuterium)bicyclo[4.2.0]octa-1(6),2,4-trien-3-yl]methyl}-4-chloro-2-methoxyphenyl)-6-(hydroxymethyl)oxane-3,4,5-triol] were, in that order, 1 nM and 64 nM.
The like results for `[2H]C1([2H])Cc2cc(Cc3cc([C@@H]4O[C@H](CO)[C@@H](O)[C@H](O)[C@H]4O)ccc3C)ccc21` [Compound 85, (2S,3R,4R,5S,6R)-(3-((1,1-dideuterium-1,2-dihydrocyclobutabenzen-4-yl)methyl)-4-methylphenyl)-6-(hydroxymethyl)-tetrahydro-2H-pyran-3,4,5-triol] were, in that order, 2 nM and 46 nM.
`[2H]C1([2H])Cc2cc(Cc3cc([C@@H]4O[C@H](CO)[C@@H](O)[C@H](O)[C@H]4O)c(OC)cc3C)ccc21` [Compound 86, (2S,3R,4R,5S,6R)-2-(5-((1,1-dideuterium-1,2-dihydrocyclobutabenzen-4-yl)methyl)-2-methoxy-4-methylphenyl)-6-(hydroxymethyl)-tetrahydro-2H-pyran-3,4,5-triol]: the half-inhibitory concentration (IC50) in test [1] turned out to be 2 nM; in test [2] it was 68 nM.
`[2H]C1([2H])Cc2cc(Cc3cc([C@@H]4O[C@H](CO)[C@@H](O)[C@H](O)[C@H]4O)ccc3CC)ccc21` [Compound 87, (2S,3R,4R,5S,6R)-2-(3-((1,1-dideuterium-1,2-dihydrocyclo-butabenzen-4-yl)methyl)-4-ethylphenyl)-6-(hydroxymethyl)-tetrahydro-2H-pyran-3,4,5-triol]: the IC50 was found to be 2 nM in test [1] and 18 nM in test [2].
With `Cc1ccc([C@@H]2O[C@H](CO)C(F)(F)[C@H](O)[C@H]2O)cc1Cc1ccc2c(c1)CC2` [Compound 91, (2S,3R,4R,6R)-2-(3-(bicyclo[4.2.0]octa-1(6),2,4-trien-3-ylmethyl)-4-methylphenyl)-5,5-difluoro-6-(hydroxymethyl)tetrahydro-2H-pyran-3,4-diol], the IC50 in test [1] is 1 nM; in test [2] it was 49 nM.
The like results for `Cc1cc(O)c([C@@H]2O[C@H](CO)C(F)(F)[C@H](O)[C@H]2O)cc1Cc1ccc2c(c1)CC2` [Compound 92, (2S,3R,4R,6R)-2-(5-(bicyclo[4.2.0]octa-1(6),2,4-trien-3-ylmethyl)-2-hydroxy-4-methylphenyl)-5,5-difluoro-6-(hydroxymethyl)tetrahydro-2H-pyran-3,4-diol] were, in that order, 2 nM and 14 nM.
Regarding `COc1cc(C)c(Cc2ccc3c(c2)CC3)cc1[C@@H]1O[C@H](CO)C(F)(F)[C@H](O)[C@H]1O` [Compound 93, (2S,3R,4R,6R)-2-(5-(bicyclo[4.2.0]octa-1(6),2,4-trien-3-ylmethyl)-2-methoxy-4-methylphenyl)-5,5-difluoro-6-(hydroxymethyl)tetrahydro-2H-pyran-3,4-diol], the IC50 in test [1] came to 3 nM; in test [2], 95 nM.
One may read the inhibition as the drop in the measured response relative to a control, in per cent. Lower therefore signals a response near the control. As for `OC[C@H]1O[C@@H](c2ccc(F)c(Cc3ccc4c(c3)CC4)c2)[C@H](O)[C@@H](O)[C@@H]1O` [Compound 101], in test [1], the inhibition at 0.03 µM turned out to be 70%. The same compound returned an inhibition at 0.3 µM in test [2] of 22%.
For the compound `OC[C@H]1O[C@@H](c2cc(Cc3ccc4c(c3)CC4)c(Cl)cc2O)[C@H](O)[C@@H](O)C1(F)F` [Compound 102], the values for the IC50 in test [1] and in test [2] were 2 nM and 12 nM, respectively.
On to `COc1cc(Cl)c(Cc2ccc3c(c2)CC3)cc1[C@@H]1O[C@H](CO)C(F)(F)[C@H](O)[C@H]1O` [Compound 103], for which the values for the IC50 in test [1] and in test [2] were 2 nM and 13 nM, respectively.
The like results for `CCOc1cc(Cl)c(Cc2ccc3c(c2)CC3)cc1[C@@H]1O[C@H](CO)C(F)(F)[C@H](O)[C@H]1O` [Compound 104] were, in that order, 1 nM and 14 nM.
The like results for `CCOc1cc(CC)c(Cc2ccc3c(c2)CC3)cc1[C@@H]1O[C@H](CO)[C@@H](O)[C@H](O)[C@H]1O` [Compound 105] were, in that order, 1 nM and 32 nM.
The compound `OC[C@H]1O[C@@H](c2ccc(Cl)c(Cc3ccc4c(c3)CC4)c2)[C@H](O)[C@@H](O)C1(F)F` [Compound 106] displayed an inhibition at 0.03 µM in test [1] of 26%. This compound also displayed an inhibition at 0.3 µM in test [2] of 41%.
`COc1cc(O)c([C@@H]2O[C@H](CO)C(F)(F)[C@H](O)[C@H]2O)cc1Cc1ccc2c(c1)CC2` [Compound 107]: the half-maximal inhibitory concentration (IC50) in test [1] was determined as 1 nM; in test [2] it was 10 nM.
`COc1cc(OC)c([C@@H]2O[C@H](CO)C(F)(F)[C@H](O)[C@H]2O)cc1Cc1ccc2c(c1)CC2` [Compound 108]: the half-inhibitory concentration (IC50) in test [1] was 1 nM; in test [2], 27 nM.
With `CCOc1cc(OC)c(Cc2ccc3c(c2)CC3)cc1[C@@H]1O[C@H](CO)C(F)(F)[C@H](O)[C@H]1O` [Compound 109], the IC50 was 5 nM in test [1] and 158 nM in test [2].
The like results for `[2H]C([2H])([2H])Oc1cc(OC)c(Cc2ccc3c(c2)CC3)cc1[C@@H]1O[C@H](CO)[C@@H](O)[C@H](O)[C@H]1O` [Compound 112] were, in that order, 2 nM and 24 nM.
Consider `CCOc1cc(C)c(Cc2ccc3c(c2)CC3)cc1[C@@H]1O[C@H](CO)[C@@H](O)[C@H](O)[C@H]1O` [Compound 113], for which the IC50 stood at 1 nM in test [1] and 84 nM in test [2].
The like results for `CCOc1cc(OC)c(Cc2ccc3c(c2)CC3)cc1[C@@H]1O[C@H](CO)[C@@H](O)[C@H](O)[C@H]1O` [Compound 114] were, in that order, 2 nM and 37 nM.
The like results for `CCOc1cc(Cl)c(Cc2ccc3c(c2)CC3)cc1[C@@H]1O[C@H](CO)[C@@H](O)[C@H](O)[C@H]1O` [Compound 115] were, in that order, 1 nM and 22 nM.
The like results for `CCc1cc(OC2CC2)c([C@@H]2O[C@H](CO)[C@@H](O)[C@H](O)[C@H]2O)cc1Cc1ccc2c(c1)CC2` [Compound 116] were, in that order, 2 nM and 13 nM.
Consider `OC[C@H]1O[C@@H](c2cc(Cc3ccc4c(c3)CC4)c(Cl)cc2OC2CC2)[C@H](O)[C@@H](O)[C@@H]1O` [Compound 117], for which the IC50 in test [1] came out at 2 nM; in test [2], 50 nM.
Turning to `Cc1cc(OC2CC2)c([C@@H]2O[C@H](CO)[C@@H](O)[C@H](O)[C@H]2O)cc1Cc1ccc2c(c1)CC2` [Compound 118], the 50% inhibitory concentration (IC50) in test [1] was 1 nM; in test [2], 22 nM.
The like results for `Cc1c(Cc2ccc3c(c2)CC3)cc([C@@H]2O[C@H](CO)[C@@H](O)[C@H](O)[C@H]2O)c(O)c1I` [Compound 120] were, in that order, 7 nM and 14 nM.
`CCc1cc(OC(F)F)c([C@@H]2O[C@H](CO)[C@@H](O)[C@H](O)[C@H]2O)cc1Cc1ccc2c(c1)CC2` [Compound 122] registered an inhibition at 0.03 µM in test [1] of 55.5%. In test [2], this compound gave an inhibition at 0.3 µM of 53%.
